The text below walks through data of US20260345802A1, “ANTIBODY-DRUG CONJUGATES AND LINKERS AND METHODS OF USE THEREOF” (priority 2023, published 2026).

Where a SMILES comes first, the peptide text is derived from it. [ ]: non-standard residue; d: D form. Dolaproine = CO[C@@H]([C@@H]1CCCN1)[C@@H](C)C(=O)O; Dil = CC[C@H](C)[C@H](NC)[C@@H](CC(=O)O)OC; NMeV = CN[C@H](C(=O)O)C(C)C

This experiment deals with TNBC tumor tissue. In words: Single-cell RNA sequencing of tumors. Type of experiment: in vivo, mouse. The settings on record: scRNA-Seq, payload effect. The procedure: The flash-frozen tissue samples (25 mg) were collected and stored at −80° C. until processing. Chromium Next GEM RNA Profiling Sample Fixation Kit (PN-1000414, 10× Genomics, Pleasanton, CA, USA) was used to fix tissue by mixing 1 mL of fixation buffer with 25 mg of tissue, followed by fine mince and incubation at 4° C. for 16-24 hours without agitation. After fixation, tissue samples were centrifuged, washed with chilled PBS, and resuspended in 1 mL of tissue resuspension buffer. The fixed tissues supplemented with pre-warmed dissociation buffer were dissociated using an Octo Dissociator according to the manufacturer's instructions. […] Cell concentration was determined using an automated cell counter with fluorescent nucleic acid staining. […]
A 10× single-cell library was prepared using the Chromium Fixed RNA Kit (Cat #1000497, 10× Genomics). […] The quality control of cDNA was evaluated using an Agilent Bioanalyzer aiming for the final library molecules with P5 and P7 priming sites used in Illumina sequencers. For each cDNA sample, single-cell library construction was started using the 10× barcoded ligated probe products, and sequenced using the NovaSeq 6000 flow cell 100-cycle kit (Illumina, San Diego, CA, USA) in a Read1:i7:i5:Read2 format of 28:10:10:90 bp at 10× Genomics. […]

As for `CC[C@H](C)[C@@H]([C@@H](CC(=O)N1CCC[C@H]1[C@H](OC)[C@@H](C)C(=O)N[C@@H](Cc1ccccc1)C(=O)O)OC)N(C)C(=O)[C@@H](NC(=O)[C@@H](NC)C(C)C)C(C)C` [MMAF, Monomethylauristatin F] (H-[NMeV]V[Dil][Dolaproine]F-OH), the “tumor cell distribution in mitotic stages” value was “inhibition of cell proliferation”.
